Reference: patent publication US8119681B2, “2-[1-phenyl-5-hydroxy or methoxy-4alpha-methyl-hexahydrocyclopenta [ƒ]indazole-5-YL]ethyl phenyl derivatives as glucocorticoid receptor ligands” (Merck Sharp & Dohme Corp., priority 2006, dated 2012)
Where two headings read alike, the source gives them in different places.

Target: T1, human GR (Homo sapiens, UniProt P04150)
T1 sequence (P04150 1-777): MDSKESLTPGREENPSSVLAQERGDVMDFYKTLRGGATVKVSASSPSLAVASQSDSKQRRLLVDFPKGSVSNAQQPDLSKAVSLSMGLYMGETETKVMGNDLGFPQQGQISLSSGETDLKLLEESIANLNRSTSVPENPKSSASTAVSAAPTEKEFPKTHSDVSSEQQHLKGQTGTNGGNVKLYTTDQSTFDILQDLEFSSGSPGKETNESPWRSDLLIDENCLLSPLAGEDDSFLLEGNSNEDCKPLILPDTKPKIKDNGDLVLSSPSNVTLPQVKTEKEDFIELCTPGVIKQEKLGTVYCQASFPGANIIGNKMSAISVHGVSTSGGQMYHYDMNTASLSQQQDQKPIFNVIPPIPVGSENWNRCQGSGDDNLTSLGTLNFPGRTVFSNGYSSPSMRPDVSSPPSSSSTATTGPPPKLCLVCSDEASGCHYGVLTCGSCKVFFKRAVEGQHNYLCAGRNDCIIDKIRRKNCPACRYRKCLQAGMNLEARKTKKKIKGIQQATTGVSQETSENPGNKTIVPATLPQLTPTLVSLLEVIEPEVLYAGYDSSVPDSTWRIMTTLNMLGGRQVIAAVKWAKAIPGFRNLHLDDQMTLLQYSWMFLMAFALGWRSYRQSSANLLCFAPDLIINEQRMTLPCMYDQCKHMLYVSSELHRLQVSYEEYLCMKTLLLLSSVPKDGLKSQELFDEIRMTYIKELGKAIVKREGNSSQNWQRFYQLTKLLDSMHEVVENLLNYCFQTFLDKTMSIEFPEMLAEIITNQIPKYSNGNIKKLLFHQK
Assay: Trans-Activation Modulation of Glucocorticoid Receptor (GRAMMER), MMTV-LUC reporter gene
Format: cell-based
Design: endogenous in cells
Details: for Emax: A549; for EC50: A549 cells, IP = inflection point
Text: Trans-Activation Modulation of Glucocorticoid Receptor (GRAMMER)
This assay assesses the ability of test compounds to control transcription from the MMTV-LUC reporter gene in lung adenocarcinoma A549 cells or HeLa cells, a human […] cell line that naturally expresses the human GR. The assay measures induction of a modified MMTV LTR/promoter linked to the LUC reporter gene.
The routine transient assay consists of plating 7,000-25,000 cells/well of a white, clear-bottom 96-well plate. Alternatively, 384-well plates can be used at a cell concentration of 10,000/well. The media that the cells are plated in is “exponential growth medium” which consists of phenol red-free RPMI1640 containing 10% FBS, 4 mM L-glutamine, 20 mM HEPES, 10 ug/mL human insulin, and 20 ug/mL gentamicin. Incubator conditions are 37° C. and 5% CO2. The transfection is done in batch mode. The cells are trypsinized and counted to the right cell number in the proper amount of fresh media. It is then gently mixed with the FuGene6/DNA mix and plated onto the 96 or 384-well plate, all the wells receive 100 uL or 40 uL, respectively, of medium+lipid/DNA complex then incubated 37° C. overnight. The transfection cocktail consists of serum-free OptiMEM, FuGene6 reagent and DNA. The manufacturer's (Roche Biochemical) protocol for cocktail setup is as follows: The lipid to DNA ratio is approximately 2.5:1 and the incubation time is 20 min at room temperature. Sixteen to 24 hours after transfection, the cells are treated with dexamethasone to a final concentration of 10 nM as well as the compound of interest, such that final DMSO (vehicle) concentration is equal to or less than 1%. Each plate also contains samples that are treated with 10 nM dexamethasone alone, which is used as the 100% activity control. The cells are exposed to the compounds for 24 hours. After 24 hours, the cells are lysed by a Promega cell culture lysis buffer for approximately 30 min and then the luciferase activity in the extracts is assayed in the 96-well format luminometer. In 384-well format, Steady-Glo (Promega) or Steady-Lite (PerkinElmer) can be used by adding an equal volume of reagent to the media present in each well. Activity induced by 10 nM dexamethasone alone is set at 100% activity. Antagonist activity is calculated by determining the decrease in dexamethasone-induced activity in response to compound treatment relative to samples that were treated with dexamethasone alone. […] This transactivation assay can be performed in an agonist and antagonist mode to identify these different activities. […]

[1] = read-out: Transactivation A549 Cells GRAMMER Emax (%)
[2] = Table 1, read-out: Transactivation A549 Cells GRAMMER IP
[3] = read-out: Transactiviation A549 Cells GRAMMER Emax (%)
[4] = Table 2, read-out: Transactiviation A549 Cells GRAMMER IP

Emax [1] [%] | EC50 [2] [nM] | Emax [3] [%] | EC50 [4] [nM] | Structure (SMILES)
 |  | 26 | 571 | C[C@]12Cc3cnn(-c4ccc(F)cc4)c3C=C1CC[C@@]2(O)CCc1ccc(F)cc1 [Example 46 WO 2004/075840 A2, reference compound]
46 | 231 |  |  | C[C@]12Cc3cnn(-c4ccc(F)cc4)c3C=C1CC[C@@]2(O)CCc1ccccc1C(=O)N1CCC1 [Example 40, (4αS,5R)-5-{2-[2-(azetidin-1-ylcarbonyl)phenyl]ethyl}-1-(4-fluorophenyl)-4α-methyl-1,4,4α,5,6,7-hexahydrocyclopenta[f]indazol-5-ol]
51 | 39 |  |  | CCNC(=O)c1ccccc1CC[C@]1(O)CCC2=Cc3c(cnn3-c3ccc(F)cc3)C[C@@]21C [Example 2, N-ethyl-2-{2-[(4αS,5R)-1-(4-fluorophenyl)-5-hydroxy-4α-methyl-1,4,4α,5,6,7-hexahydrocyclopenta[f]indazol-5-yl]ethyl}benzamide]
24 | 39 |  |  | COC(=O)C1(NC(=O)c2ccccc2CC[C@]2(O)CCC3=Cc4c(cnn4-c4ccc(F)cc4)C[C@@]32C)CC1 [Example 26, methyl 1-[(2-{2-[(4αS,5R)-1-(4-fluorophenyl)-5-hydroxy-4α-methyl-1,4,4α,5,6,7-hexahydrocyclopenta[f]indazol-5-yl]ethyl}benzoyl)amino]cyclopropanecarboxylate]
13 | 134 |  |  | C=C(C)CNC(=O)c1ccccc1CC[C@]1(O)CCC2=Cc3c(cnn3-c3ccc(F)cc3)C[C@@]21C [Example 32, 2-{2-[(4αS,5R)-1-(4-fluorophenyl)-5-hydroxy-4α-methyl-1,4,4α,5,6,7-hexahydrocyclopenta[f]indazol-5-yl]ethyl}-N-(2-methylprop-2-en-1-yl)benzamide]
43 | 170 |  |  | C[C@]12Cc3cnn(-c4ccc(F)cc4)c3C=C1CC[C@@]2(O)CCc1cccc(F)c1[C@H](N)C(F)(F)F [Example 151, (4αS,5R)-5-(2-{2-[(1S)-1-amino-2,2,2-trifluoroethyl]-3-fluorophenyl}ethyl)-1-(4-fluorophenyl)-4α-methyl-1,4,4α,5,6,7-hexahydrocyclopenta[f]indazol-5-ol]
23 | 173 |  |  | CC(C)(C)CNC(=O)c1c(F)cccc1CC[C@]1(O)CCC2=Cc3c(cnn3-c3ccc(F)cc3)C[C@@]21C [Example 55, N-(2,2-dimethylpropyl)-2-fluoro-6-{2-[(4αS,5R)-1-(4-fluorophenyl)-5-hydroxy-4α-methyl-1,4,4α,5,6,7-hexahydrocyclopenta[f]indazol-5-yl]ethyl}benzamide]
55 | 137 |  |  | CN(C)S(=O)(=O)c1ccccc1CC[C@]1(O)CCC2=Cc3c(cnn3-c3ccc(F)cc3)C[C@@]21C [Example 138, 2-{2-[(4αS,5R)-1-(4-fluorophenyl)-5-hydroxy-4α-methyl-1,4,4α,5,6,7-hexahydrocyclopenta[f]indazol-5-yl]ethyl}-N,N-dimethylbenzenesulfonamide]
15 | 91 |  |  | CC(CNC(=O)c1c(F)cccc1CC[C@]1(O)CCC2=Cc3c(cnn3-c3ccc(F)cc3)C[C@@]21C)C(F)(F)F (stereo partly drawn) [Example 38, 2-fluoro-6-{2-[(4αS,5R)-1-(4-fluorophenyl)-5-hydroxy-4α-methyl-1,4,4α,5,6,7-hexahydrocyclopenta[f]indazol-5-yl]ethyl}-N-(3,3,3-trifluoro-2-methylpropyl)benzamide]
32 | 205 |  |  | CN(C)S(=O)(=O)Nc1c(F)cccc1CC[C@]1(O)CCC2=Cc3c(cnn3-c3ccc(F)cc3)C[C@@]21C [Example 113, N′-(2-fluoro-6-{2-[(4αS,5R)-1-(4-fluorophenyl)-5-hydroxy-4α-methyl-1,4,4α,5,6,7-hexahydrocyclopenta[f]indazol-5-yl]ethyl}phenyl)-N,N-dimethylsulfamide]

Further lines, the compound ahead of its results:

Structure (SMILES) | Emax [1] [%] | EC50 [2] [nM] | Emax [3] [%] | EC50 [4] [nM]
CC(CNC(=O)c1ccccc1CC[C@]1(O)CCC2=Cc3c(cnn3-c3ccc(F)cc3)C[C@@]21C)C(F)(F)F (stereo partly drawn) [Example 31, 2-{2-[(4αS,5R)-1-(4-fluorophenyl)-5-hydroxy-4α-methyl-1,4,4α,5,6,7-hexahydrocyclopenta[f]indazol-5-yl]ethyl}-N-(3,3,3-trifluoro-2-methylpropyl)benzamide] | 9 | 93 |  | 
C[C@]12Cc3cnn(-c4ccc(F)cc4)c3C=C1CC[C@@]2(O)CCc1cccc(F)c1CNS(=O)(=O)C(Cl)Cl [Example 85, 1,1-dichloro-N-(2-fluoro-6-{2-[(4αS,5R)-1-(4-fluorophenyl)-5-hydroxy-4α-methyl-1,4,4α,5,6,7-hexahydrocyclopenta[f]indazol-5-yl]ethyl}benzyl)methanesulfonamide] | 19 | 94 |  | 
COc1ccccc1CC[C@]1(O)CCC2=Cc3c(cnn3-c3ccc(F)cc3)C[C@@]21C [Example 58 WO 2004/075840 A2, reference compound] |  |  | 28 | 397
C[C@]12Cc3cnn(-c4ccccc4)c3C=C1CC[C@@]2(O)CCc1ccccc1C(N)=O [Example 43, 2-{2-[(4αS,5R)-5-hydroxy-4α-methyl-1-phenyl-1,4,4α,5,6,7-hexahydrocyclopenta[f]indazol-5-yl]ethyl}benzamide] | 59 | 111 |  | 
C[C@]12Cc3cnn(-c4ccc(F)cc4)c3C=C1CC[C@@]2(O)CCc1ccc(F)cc1C#N [Example 163, 5-fluoro-2-{2-[(4αS,5R)-1-(4-fluorophenyl)-5-hydroxy-4α-methyl-1,4,4α,5,6,7-hexahydrocyclopenta[f]indazol-5-yl]ethyl}benzonitrile] | 48 | 103 |  | 
C[C@]12Cc3cnn(-c4ccc(F)cc4)c3C=C1CC[C@@]2(O)CCc1ccccc1C(=O)N1CCCCC1 [Example 46, (4αS,5R)-1-(4-fluorophenyl)-4α-methyl-5-{2-[2-(piperidin-1-ylcarbonyl)phenyl]ethyl}-1,4,4α,5,6,7-hexahydrocyclopenta[f]indazol-5-ol] | 54 | 176 |  | 
C[C@]12Cc3cnn(-c4ccc(F)cc4)c3C=C1CC[C@@]2(O)/C=C/c1ccccc1S(N)(=O)=O [Example 160, 2-{(E)-2-[(4αS,5R)-1-(4-fluorophenyl)-5-hydroxy-4α-methyl-1,4,4α,5,6,7-hexahydrocyclopenta[f]indazol-5-yl]vinyl}benzenesulfonamide] |  | 118 |  | 
C[C@]12Cc3cnn(-c4ccc(Cl)cc4)c3C=C1CC[C@@]2(O)CCc1cccc(F)c1C(N)=O [Example 185, 2-{2-[(4αS,5R)-1-(4-chlorophenyl)-5-hydroxy-4α-methyl-1,4,4α,5,6,7-hexahydrocyclopenta[f]indazol-5-yl]ethyl}-6-fluorobenzamide] | 39 | 144 |  | 
C[C@]12Cc3cnn(-c4ccc(F)cc4)c3C=C1CC[C@@]2(O)CCc1ccc(F)cc1C(N)=O [Example 159, 5-fluoro-2-{2-[(4αS,5R)-1-(4-fluorophenyl)-5-hydroxy-4α-methyl-1,4,4α,5,6,7-hexahydrocyclopenta[f]indazol-5-yl]ethyl}benzamide] | 37 | 197 |  | 
